# Reference: patent US20230263782A1, “ORAL FORMULATIONS AND USES THEREOF” (INVENTISBIO CO., LTD., priority 2020, published 2023)
# Structures can show the parent of a compound that is named as a salt. Where two headings read alike, the source gives them in different places.
# Key:
# [1] = Solid stability test at 40° C./75% RH for 8 days (HPLC, XRPD); format: physicochemical; details: for Solid stability: 40° C./75% RH for 8 days, HPLC and XRPD; for Purity at 8 days / Purity at 0 day: HPLC; for Purity at 8 days: after 40° C./75% RH for 8 days; for Purity at 0 day: start of 40° C./75% RH storage
# Protocol: HPLC ANALYSIS: a representative HPLC method is shown below, which can be used, for example, to analyze the purity, solubility, and stability of the salts herein.
# For stability test: About 20 mg of Compound FA, L-lysine salt and meglumine salt (Form I) were weighed into vials, and put at the condition of 40° C./75% RH for 8 days. At 0 and 8 days, the solid sample was dissolved using acetonitrile/water (1/1) to make a solution with the concentration of 0.2 mg/mL. Sample solutions were analyzed by HPLC and solid samples were examined by XRPD.
# [2] = Solubility in water (statement); format: physicochemical
# [3] = Dynamic moisture sorption analysis (DVS), XRPD before and after; format: physicochemical; details: FIG. 5A
# Protocol: Dynamic moisture sorption analysis (DVS): DVS was determined using IGAsorp (Hiden Isochema, UK). The sample was tested at a targeted RH (relative humidity) of 10 to 90% full cycle in step mode. The analysis was performed in 10% RH increments.
# [4] = compared with fulvestrant, GDC-0810 and AZD9496; WO2017/136688; cited from earlier work
# [5] = Solubility test in pH 1.2 or pH 6.8 buffer (saturated solutions, HPLC; remaining solids by XRPD); format: physicochemical; details: for Stability in buffer solution (HPLC): pH 1.2 buffer solution; for solubility at 30 min / Solubility at 24 h: room temperature; for XRPD patterns at 24 h: remaining solid
# Protocol: For solubility test: About 20 mg of Compound FA, L-lysine salt and meglumine salt (Form I) were weighed into vials, added 3 mL of pH1.2 or pH 6.8 buffer to make saturated solutions. All suspensions were kept shaking with 200 rpm at room temperature for up to 24 hours. […] At 24 hours, remaining solids were collected and determined by XRPD.
# [6] = test system: ER+ breast cancer cells; details: as discussed in WO2017/136688; cited from earlier work
# [7] = target: T1, ER (Homo sapiens, UniProt P03372); details: clinical samples, intramuscular injection monthly; cited from earlier work
# T1 sequence (P03372 1-595): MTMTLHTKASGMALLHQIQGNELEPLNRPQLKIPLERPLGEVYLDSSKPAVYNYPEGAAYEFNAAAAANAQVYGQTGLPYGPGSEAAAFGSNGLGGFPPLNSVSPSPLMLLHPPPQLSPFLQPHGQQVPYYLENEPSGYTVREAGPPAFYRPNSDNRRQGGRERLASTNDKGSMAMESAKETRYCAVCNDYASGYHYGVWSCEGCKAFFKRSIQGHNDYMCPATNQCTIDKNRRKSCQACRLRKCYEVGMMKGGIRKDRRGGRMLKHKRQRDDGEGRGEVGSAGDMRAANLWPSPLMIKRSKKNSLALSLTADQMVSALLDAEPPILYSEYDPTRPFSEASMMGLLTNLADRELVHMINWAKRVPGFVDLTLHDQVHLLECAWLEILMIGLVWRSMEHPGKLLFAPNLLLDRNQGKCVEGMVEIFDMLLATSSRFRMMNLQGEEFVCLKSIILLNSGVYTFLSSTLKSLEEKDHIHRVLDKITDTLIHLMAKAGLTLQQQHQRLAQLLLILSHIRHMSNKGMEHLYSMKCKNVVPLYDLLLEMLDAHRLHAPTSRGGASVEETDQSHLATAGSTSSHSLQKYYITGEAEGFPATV
# [8] = Meglumine salt form interconversion study (slurry in IPA or water, XRPD); format: physicochemical; details: Water
# Protocol: Interconversion study: Interconversion studies were carried out by mixing the same amount of different form solids in IPA or water, respectively. Suspensions were kept stirring at room temperature and 60° C. for several days, during which suspensions were filtrated and analyzed by XRPD.
# [9] = Solid stability test of Form I at 25° C./92.5% RH for 10 days (XRPD); format: physicochemical
# Protocol: Solid stability test of Form I at 92.5% RH for 10 days: About 20 mg of meglumine salt Form I was put into the condition of 25° C./92.5% RH for 10 days. At 10 days, the sample was analyzed by XRPD.
# [10] = Physical treatment (grinding) of Form I; format: physicochemical; details: grinded for 2 min and 5 min
# Protocol: Physical treatment of Form I: Form I of meglumine salt was grinded for 2 min and 5 min. After grinding, the crystallinity declined, but the crystal form was still Form I.
# [11] = pH 1.2 buffer, calculated with the sum of impurities and major peak area
Structure (SMILES),Solid stability [1],Purity at 8 days [1] [Area %],Purity at 0 day [1] [Area %],Stability in buffer solution (HPLC) [5],"Solubility at 24 h [5, 11] [µg/mL]",Solubility at 24 h ([5]; pH 6.8 buffer) [µg/mL],XRPD patterns at 24 h ([5]; pH 1.2 buffer),XRPD patterns at 24 h ([5]; pH 6.8 buffer),further results
"C[C@@H]1Cc2c([nH]c3ccccc23)[C@@H](c2c(Cl)cc(/C=C/C(=O)O)cc2Cl)N1CC(C)(C)F [Compound FA, (E)-3-(3,5-dichloro-4-((1R,3R)-2-(2-fluoro-2-methylpropyl)-3-methyl-2,3,4,9-tetrahydro-1H-pyrido[3,4-b]indol-1-yl)phenyl)acrylic acid]",physically and chemically stable,96.31,98.02,unstable,267,3,Low crystallinity,Low crystallinity,"Solubility in water [2]: practically insoluble in water; Solid form before and after DVS studies (XRPD) [3]: did not change; human hepatocyte clearance [4]: better human hepatocyte clearance; solubility at 30 min ([5]; pH 1.2 buffer, pH 1.2, simulated gastric fluid, thermodynamic from solid, pH 1.2 buffer, calculated with the sum of impurities and major peak area, read-out: Solubility at 30 min): 571 µg/mL; solubility at 30 min ([5]; pH 6.8 buffer): 14 µg/mL; growth of ER+ breast cancer cells [6]: inhibited the growth of ER+ breast cancer cells"
C[C@]12CC[C@@H]3c4ccc(O)cc4C[C@@H](CCCCCCCCC[S+]([O-])CCCC(F)(F)C(F)(F)F)[C@H]3[C@@H]1CC[C@@H]2O (some centres unmarked) [fulvestrant],–,–,–,–,–,–,–,–,ER degradation [7]: ~50%
"C[C@@H]1Cc2c([nH]c3ccccc23)[C@@H](c2c(Cl)cc(/C=C/C(=O)O)cc2Cl)N1CC(C)(C)F [Meglumine salt, meglumine (E)-3-(3,5-dichloro-4-((1R,3R)-2-(2-fluoro-2-methylpropyl)-3-methyl-2,3,4,9-tetrahydro-1H-pyrido[3,4-b]indol-1-yl)phenyl acrylate]",physically and chemically stable,99.66,99.68,unstable,1612,17,No change,Low crystallinity,"Final crystal form ([8]; 25° C.): Dihydrate; Final crystal form ([8]; 60° C.): Form I; Crystal form after storage (XRPD) [9]: remained unchanged; Crystal form after grinding [10]: still Form I; solubility at 30 min [5, 11]: 296 µg/mL; solubility at 30 min ([5]; pH 6.8 buffer, pH 6.8, aqueous buffer, thermodynamic from solid, pH 6.8 buffer, read-out: Solubility at 30 min): 20 µg/mL"
